US9504702B2, “Methods of inhibition of protein fucosylation in vivo using fucose analogs” (Seattle Genetics, Inc., priority 2010, dated 2016)
Entries after “also recorded” stand apart in the source; their conditions may differ.

How the values were obtained:
[1] = tested on: LP-1 cells (1,6-fucosylation on the antibody); assay: Fucosylation status of LP-1-generated IgG by reducing PLRP-MS; assay type: cell-based, human; details: 100 μM, 5 days, in words
Source text: To further define the results of the AOL dot blot, samples of the IgGs produced by cells treated with the following fucose analogs (that gave moderate to strong decreases in the dot blot AOL signal) were isolated and examined by reducing PLRP-MS to verify the fucosylation status using the MW of the heavy chain: alkynyl fucose peracetate; 5-vinylfucose tetraaceate; 5-methylketofucose tetraacetate; 6-bromofucose tetraacetate; 6-fluorofucose tetraacetate; 5-ethylfucose tetraacetate; 5-epoxyfucose tetraacetate; 6′6-difluorofucose tetraacetate; 6-keto-6-ethyl fucose tetraacetate; and 2-fluorofucose peracetate.
40 mL samples of LP-1 cells (250,000 cells/mL) were treated with 100 μM of a fucose analog for 5 days as described above, and the IgGs were purified as described using protein A resin. The yields were estimated by UV spectroscopy assuming an extinction coefficient of 1.4 AU/(mg/mL). Seven of the ten compounds yielded enough IgG to perform the analysis (use of SGD-2067, SGD-1964, and SGD-2020 yielded <10 μg of IgG, likely due to toxicity of the analogs to the cells). The remaining IgGs were reduced with 10 mM DTT at 37° C. for 15 min and were separated on PLRP followed by MS analysis using a QTOF mass spectrometer. The resulting heavy chain peaks were examined and compared to the IgG generated by untreated cells.
The mass spectrometry signals were evaluated by comparing the peak height of the heavy chain versus heavy chain minus fucose and heavy chain minus fucose plus the mass of the fucose analog (which would arise if there was incorporation of the analog into the antibody carbohydrate).

[2] = tested on: LS174T, PC-3, HL-60, Ramos, and Caki-1 cell lines; assay: Cell surface fucosylation of human-derived cell lines cultured with fucose analog, FACS (Example 7, Study 1); assay type: cell-based; details: 100 μM, two weeks
Experimental: Human-derived cell lines were evaluated for their susceptibility to the fucose analog 2-fluorofucose in vitro. The cells lines were: LS174T colon adenocarcinoma, […], HL-60 acute mylogenous leukemia, Ramos Burkitt lymphoma, and Caki-1 renal cell carcinoma. The cell lines were cultured in the presence of 100 μM 2-fluorofucose (SGD-2083) in growth media, 100 μM alkynylfucose (SGD-1887) in growth media, or control growth media (without a fucose analog) for two weeks. The growth media were MEM Eagle with 10% FBS (LS174T), 50:50 F12 and RPMI with 10% FBS (PC-3), RPMI with 10% FBS (HL-60), IMDM with 10% FBS (Ramos), and McCoy with 10% FBS ([…]). The cells were evaluated for cell surface fucosylation by FACS using antibody cBR96 to detect LewisY, antibody SSEA-1 to detect LewisX, P-selectin ligand to detect P-selectin, and AOL lectin to detect the general level of fucosylation.

| Structure (SMILES) | PLRP/MS (inhibition or incorporation) [1] | inhibition of protein fucosylation, compared with alkynyl fucose (SGD-1887) [2] |
| --- | --- | --- |
| C#CC(OC(C)=O)[C@@H](OC(C)=O)[C@@H](OC(C)=O)[C@@H](C=O)OC(C)=O (some centres unmarked) [SGD-1890, 5-ethynylarabinose tetraacetate] | complete inhibition; also recorded: Full inhibitor | – |
| C[C@H](O)[C@@H](O)[C@@H](O)[C@H](F)C=O [SGD-2083, 2-fluoro-2-deoxy fucose] | – | generally a better inhibitor |
